# Experimental data as given in patent US10206398B2, “Five-membered C-N-attached aryl sulphide and aryl sulphoxide derivatives as pesticides” (BAYER CROPSCIENCE AKTIENGESELLSCHAFT, priority 2014, dated 2019).
# Read-outs that look alike come from different tables or passages of the source.
# Tests used:
# [1] = log P determination by HPLC on reversed-phase columns (C 18), analogous to OECD Guideline 117; format: physicochemical; details: for logP[a]: method [a]; for logP[b]: method [b]; for chromatographic logP: reversed-phase HPLC column (C 18)
# Experimental: The log P values were determined analogously to OECD Guideline 117 (EC Directive 92/69/EEC) by HPLC (high-performance liquid chromatography) using reversed-phase columns (C 18), by the following methods: [a] The LC-MS determination in the acidic range was effected at pH 2.7 with 0.1% aqueous formic acid and acetonitrile (contains 0.1% formic acid) as eluents; linear gradient from 10% acetonitrile to 95% acetonitrile. log P[a] is also referred to as log P(HCOOH). [b] LC-MS determination in the neutral range was effected at pH 7.8 with 0.001 molar aqueous ammonium hydrogencarbonate solution and acetonitrile as eluents; linear gradient from 10% acetonitrile to 95% acetonitrile. log P[b] is also referred to as log P(neutral). Calibration is effected with solutions of a homologous series of unbranched alkan-2-ones (having 3 to 16 carbon atoms) with known log P values (log P values determined on the basis of the retention times by linear interpolation between two successive alkanones).
# Tetranychus urticae = Tetranychus urticae - spray test, OP-resistant (bean leaf discs, 6 days); format: in vivo; details: 500 g/ha, after 6 days; for pest or weed control at 500 g/ha: Tetranychus urticae, foliar, 144 h, read-out: efficacy (spider mites killed)
# Experimental: 5. Tetranychus urticae—Spray Test, OP-Resistant
# Solvent: 78.0 parts by weight of acetone
# • 1.5 parts by weight of dimethylformamide Emulsifier: alkylaryl polyglycol ether
# To produce a suitable preparation of active compound, 1 part by weight of active compound is dissolved using the stated parts by weight of solvent and made up with water containing an emulsifier concentration of 1000 ppm until the desired concentration is attained. To produce further test concentrations, the preparation is diluted with emulsifier-containing water.
# Discs of bean leaves (Phaseolus vulgaris) infested with all stages of the greenhouse red spider mite (Tetranychus urticae) are sprayed with an active compound preparation of the desired concentration.
# After 6 days, the efficacy in % is determined. 100% means that all the spider mites have been killed; 0% means that no spider mites have been killed.
# [2] = pH 2.7, HPLC, acidic range, pH 2.7, 0.1% aqueous formic acid and acetonitrile, read-out: log P(HCOOH)
# [3] = pH 2.7, method [a], read-out: logP[a]
# [4] = pH 7.8, HPLC, neutral range, pH 7.8, 0.001 molar aqueous ammonium hydrogencarbonate and acetonitrile, read-out: log P(neutral)
# [5] = pH 7.8, method [b], read-out: logP[b]
# [6] = pH 2.7, Table 3, HPLC, acidic range, pH 2.7, read-out: logP[a]
# [7] = pH 7.8, Table 3, HPLC, neutral range, pH 7.8, read-out: logP[b]
SMILES,logP[a] [1],logP[b] [1],"chromatographic logP [1, 2]","chromatographic logP [1, 3]","chromatographic logP [1, 4]","chromatographic logP [1, 5]","chromatographic logP [1, 6]","chromatographic logP [1, 7]",efficacy (spider mites killed) (Tetranychus urticae) [%],pest or weed control at 500 g/ha (Tetranychus urticae) [%]
"Cc1cc(F)c(N2C(=O)CN(C(=O)NC3CC3)C2=O)cc1[S+]([O-])CC(F)(F)F (stereo not shown) [Ex. No. 3, N-Cyclopropyl-3-[2-fluoro-4-methyl-5-(2,2,2-trifluoroethylsulphinyl)phenyl]-2,4-dioxoimidazolidine-1-carboxamide]",–,–,2.15,2.15,2.12,2.12,–,–,–,100
"Cc1cc(F)c(N2C(=O)CN(C(=O)NC3CC3)C2=S)cc1[S+]([O-])CC(F)(F)F (stereo not shown) [Ex. No. 4, N-Cyclopropyl-3-[2-fluoro-4-methyl-5-(2,2,2-trifluoroethylsulphinyl)phenyl]-4-oxo-2-thioxoimidazolidine-1-carboxamide]",–,–,2.64,2.64,2.65,2.65,–,–,–,100
"Cc1cc(F)c(N2C(=O)CN(C(=O)NCC(C)C)C2=O)cc1SCC(F)(F)F [Ex. No. 12, 3-[2-Fluoro-4-methyl-5-(2,2,2-trifluoroethylsulphanyl)phenyl]-N-isobutyl-2,4-dioxoimidazolidine-1-carboxamide]",–,–,3.67,3.67,3.58,3.58,–,–,–,100
Cc1cc(F)c(N2C(=O)CN(C(=O)NCC(C)C)C2=S)cc1[S+]([O-])CC(F)(F)F (stereo not shown) [Ex. No. 13],3.33,3.24,–,–,–,–,–,–,90,–
"CCNC(=O)N1C(=O)N(c2cc(SCC(F)(F)F)c(C)cc2F)C(=O)C1C (stereo not shown) [Ex. No. 24, N-Ethyl-3-[2-fluoro-4-methyl-5-(2,2,2-trifluoroethylsulphanyl)phenyl]-5-methyl-2,4-dioxoimidazolidine-1-carboxamide]",–,–,3.38,3.38,3.3,3.3,–,–,–,100
"Cc1cc(F)c(N2C(=O)N(C(=O)NC3CC3)C(C)(C)C2=O)cc1SCC(F)(F)F [Ex. No. 74, N-Cyclopropyl-3-[2-fluoro-4-methyl-5-(2,2,2-trifluoroethylsulphanyl)phenyl]-5,5-dimethyl-2,4-dioxoimidazolidine-1-carboxamide]",–,–,3.76,3.76,3.72,3.72,–,–,–,100
"Cc1cc(F)c(N2C(=O)N(C(=O)NC3CC3)C(C)(C)C2=O)cc1[S+]([O-])CC(F)(F)F (stereo not shown) [Ex. No. 84, N-Cyclopropyl-3-[2-fluoro-4-methyl-5-(2,2,2-trifluoroethylsulphinyl)phenyl]-5,5-dimethyl-2,4-dioxoimidazolidine-1-carboxamide]",–,–,2.73,2.73,2.73,2.73,–,–,–,100

# Second part, led by results:
logP[a] [1],logP[b] [1],"chromatographic logP [1, 2]","chromatographic logP [1, 3]","chromatographic logP [1, 4]","chromatographic logP [1, 5]","chromatographic logP [1, 6]","chromatographic logP [1, 7]",SMILES,efficacy (spider mites killed) (Tetranychus urticae) [%],pest or weed control at 500 g/ha (Tetranychus urticae) [%]
3.81,3.89,–,–,–,–,–,–,O=C(Nc1cccc(Cl)c1)N1CC(=O)N(c2cc([S+]([O-])CC(F)(F)F)c(Cl)cc2Cl)C1=O (racemic) [compound 117],100,–
3.92,4.02,–,–,–,–,–,–,O=C(Nc1cccc(C(F)(F)F)c1)N1CC(=O)N(c2cc([S+]([O-])CC(F)(F)F)c(Cl)cc2Cl)C1=O (racemic) [compound 120],100,–
–,–,2.11,–,2.08,–,2.11,2.08,Cc1cc(F)c(N2C(=O)CNC2=O)cc1SCC(F)(F)F [IIa-1],–,90
–,–,2.53,–,2.5,–,2.53,2.5,"Cc1cc(F)c(N2C(=O)CNC2=S)cc1SCC(F)(F)F [IIa-2, 3-[2-Fluoro-4-methyl-5-(2,2,2-trifluoroethylsulphanyl)phenyl]-2-thioxoimidazolidin-4-one]",–,100
